This passage reports Activity results from ChEMBL document CHEMBL1158797, “Alkaloids and aromatics of Cyathobasis fruticulosa (Bunge) Aellen” (2005).

Test [1] deals with Saccharomyces cerevisiae. Nature of the test: Antifungal activity against Saccharomyces cerevisiae RS321NYCp50 by microtiter yeast assay. In kind it is functional, organism-based.
The test system of test [2] is Saccharomyces cerevisiae. Nature of the test: Antifungal activity against Saccharomyces cerevisiae RS321NpRAD52 by microtiter yeast assay. The test is classed as functional, organism-based.
In another test the test system is A2780. The test can be described thus: Cytotoxicity against human A2780 cells. In kind it is functional.

`CN(C=O)CCc1ccc(O)cc1`: the Activity result in the test with Saccharomyces cerevisiae [1] and with Saccharomyces cerevisiae [2] was “Dose-dependent effect” each time. Regarding `CN1CCc2c([nH]c3ccccc23)C1`, in the test with A2780, the Activity is reported as 38%.

Regarding `CN(C)CCc1ccc(O)cc1` [HORDENINE], the Activity in the test on A2780 stood at 39%.
